Source: patent publication US20050165033A1, “Use of indole-3-acetic acids in the treatment of asthma, copd and other diseases” (priority 2002, published 2005)

biological target: T1, CRTh2 receptor (Homo sapiens, UniProt Q9Y5Y4); assay: Intracellular calcium mobilisation (FLIPr, fluo-3AM), inhibition of the response to PGD2 in HEK-hrCRTh2-Gα16 cells; type: cell-based; settings: antagonist affinity vs PGD2, pIC50 Cheng-Prusoff analysis, read-out: pA2 (converted)
T1 construct: expressed in transfected cells
T1 sequence (Q9Y5Y4 1-395): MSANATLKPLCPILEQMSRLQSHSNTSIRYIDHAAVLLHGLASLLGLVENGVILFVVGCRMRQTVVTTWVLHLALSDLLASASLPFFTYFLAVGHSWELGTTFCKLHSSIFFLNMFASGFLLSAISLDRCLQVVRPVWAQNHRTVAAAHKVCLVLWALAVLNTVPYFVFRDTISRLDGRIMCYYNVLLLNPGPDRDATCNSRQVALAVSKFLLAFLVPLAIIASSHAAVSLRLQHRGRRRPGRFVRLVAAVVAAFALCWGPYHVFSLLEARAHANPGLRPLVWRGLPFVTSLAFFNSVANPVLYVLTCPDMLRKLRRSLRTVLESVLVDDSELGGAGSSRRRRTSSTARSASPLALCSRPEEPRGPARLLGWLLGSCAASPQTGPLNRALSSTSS
Experimental: Pharmacological Data—Intracellular Calcium Mobilisation
Human Embryonic Kidney Cells co-transfected with both the CRTh2 receptor and […] G-protein (HEK-hrCRTh2-G[…]16) are routinely cultured as monolayers in Dulbecco's Modified Eagles Medium (DMEM; Sigma) supplemented with 10% (v:v) heat inactivated foetal bovine serum (New Zealand sourced; Hyclone), 1% (v:v) non-essential amino acids (Gibco BRL), 1% (v:v) penicillin/streptomycin (Gibco BRL), 2 mM L-glutamine (Gibco BRL) and grown under 1 mg/ml […] Geneticin (Gibco BRL) antibiotic selection. Approximately 24 hours prior to the assay the cells are plated at a seeding density of 100,000 cells/well in 100 µl growth media into black walled 96 well Poly-D-Lysine coated plates (Becton Dickinson), with clear bottoms to allow cell inspection and fluorescence measurements from the bottom of each well. All cultures are maintained under standard tissue culture conditions (37° C. in a humidified atmosphere of 5% CO2).
To enable changes in intracellular calcium levels to be measured in HEK-hrCRTh2-Gα16 cells fluo-3AM is utilised as the fluorescent calcium indicator. A dye loading buffer is prepared which consists of a final concentration of 5 µM Fluo-3AM fluorescent cytoplasmic calcium indicator dye (Tef Labs), 2.2 µl/ml Pluronic F127 (Molecular Probes) to promote dye uptake, and 0.5 mM brilliant black (Sigma) to reduce background fluorescence in Balanced Salt Solution (BSS; 125 mM NaCl, 5.4 mM KCl, 16.2 mM NaHCO3, 0.8 mM MgCl2, 1 mM CaCl2, 20 mM HEPES, 1 mM NaH2PO4, 5.5 mM D-(+)-Glucose, 0.1% BSA and pH 7.4 with NaOH). […]
Test compounds are made up at a stock concentration of 10 mM in DMSO. The compounds to be evaluated are then prepared, by serial dilution in BSS buffer, to the required concentrations for inhibition dose response curves to be constructed. […] This allows the potency agonist (p[A]50) value to be determined for the HEK-hrCRTh2-Gα16 cells on any given day. Once the p[A]50 for PGD2 has been determined a separate assay plate containing 2×p[A]50 of PGD2 is prepared as the 2nd addition plate (or agonist plate). […]

**Q.** With Cc1c(CC(=O)O)c2ccccc2n1-c1ncnc2cc(Cl)ccc12 [1-(7-chloro-4-quinazolinyl)-2-methyl-1H-indole-3-acetic acid] as the compound, how does the Kb read?
**A.** Its Kb is 1.58 µM.

**Q.** COc1ccc2c(c1)c(CC(=O)O)c(C)n2-c1ncnc2c(Cl)cc(Cl)cc12 [1-(6,8-dichloro-4-quinazolinyl)-5-methoxy-2-methyl-1H-indole-3-acetic acid] was tested. Which Kb did it give?
**A.** The Kb was 1 µM.

**Q.** With Cc1c(CC(=O)O)c2cc(C(C)C)ccc2n1-c1ncnc2cc(Cl)ccc12 [1-(7-chloro-4-quinazolinyl)-2-methyl-5-(1-methylethyl)-1H-indole-3-acetic acid] as the compound, how does the Kb read?
**A.** The Kb was 0.158 µM.
